The test system of one assay is H727 cells. As to the kind of experiment: Inhibition of KRas-mediated phosphorylation of ERK (Cisbio HTRF pERK), H727 cells. The class given is cell-based. Conditions: Homo sapiens; for IC50: NCI-H727, 3 h, 3 hr compound incubation, Cisbio pERK HTRF; for inhibition at 0.1 µM: NCI-H727, single point at 100 nM, 3 hrs compound incubation. (TR-FRET usually uses a lanthanide donor and a delayed reading to cut background.)

In another assay the target is KRas G12R (Homo sapiens, UniProt P01116, G12R). Put plainly: biochemical. Conditions: Binding to KRas (IC50 nM) G12R, TR-FRET displacement, KRas G12R.
Chain of KRas G12R (P01116 1-169 isoform P01116-2 G12R): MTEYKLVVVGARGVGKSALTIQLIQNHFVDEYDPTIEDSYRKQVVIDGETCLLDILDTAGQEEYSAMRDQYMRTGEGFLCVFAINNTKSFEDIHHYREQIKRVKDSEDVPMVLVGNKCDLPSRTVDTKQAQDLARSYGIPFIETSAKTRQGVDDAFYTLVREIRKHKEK
The target of a further assay is KRas G12D (Homo sapiens, UniProt P01116, G12D). As to the kind of experiment: biochemical. Conditions: Binding to KRas (IC50 nM) G12D, TR-FRET displacement, KRas G12D.
Chain of KRas G12D (P01116 1-169 isoform P01116-2 G12D): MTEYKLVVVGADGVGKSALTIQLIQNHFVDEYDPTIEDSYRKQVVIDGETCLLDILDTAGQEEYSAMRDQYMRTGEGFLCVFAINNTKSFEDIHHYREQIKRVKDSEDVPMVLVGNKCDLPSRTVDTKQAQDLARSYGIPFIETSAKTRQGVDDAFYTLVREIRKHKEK
For another assay, the system named is A549 cells. Put plainly: Inhibition of KRas-mediated phosphorylation of ERK (Cisbio HTRF pERK), A549 cells. The class given is cell-based. The settings on record: Homo sapiens; for inhibition at 0.1 µM: single point at 100 nM, 3 hrs compound incubation; for IC50: A549, 3 h, 3 hr compound incubation, Cisbio pERK HTRF.
A further assay deals with MKN1 cells. As to the kind of experiment: Inhibition of KRas-mediated phosphorylation of ERK (Cisbio HTRF pERK), MKN1 cells. The settings on record: Homo sapiens, MKN-1, 3 hour compound incubation, Cisbio pERK HTRF. It is filed as cell-based. The gist of the method:
(§1)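 Day 1: 6,000 cells/well plated, RPMI + 10% FBS.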

For another assay, the system named is H460 cells. As to the kind of experiment: Inhibition of KRas-mediated phosphorylation of ERK (Cisbio HTRF pERK), H460 cells. It is filed as cell-based. Conditions: Homo sapiens; for inhibition at 0.1 µM: NCI-H460, single point at 100 nM, 3 hrs compound incubation; for IC50: NCI-H460, 3 h, 3 hr compound incubation, Cisbio pERK HTRF.
The target in the next assay is KRas G12V (Homo sapiens, UniProt P01116, G12V). As to the kind of experiment: biochemical. The settings on record: Binding to KRas (IC50 nM) G12V, TR-FRET displacement, KRas G12V.
Chain of KRas G12V (P01116 1-169 isoform P01116-2 G12V): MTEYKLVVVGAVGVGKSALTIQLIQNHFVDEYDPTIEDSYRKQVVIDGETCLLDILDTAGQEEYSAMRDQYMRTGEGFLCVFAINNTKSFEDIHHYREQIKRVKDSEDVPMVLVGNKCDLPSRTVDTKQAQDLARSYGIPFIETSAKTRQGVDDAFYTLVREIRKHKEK
Another assay relates to ASPC1 cells. Put plainly: Inhibition of KRas-mediated phosphorylation of ERK (Cisbio HTRF pERK), ASPC1 cells. The class given is cell-based. The settings on record: Homo sapiens, AsPC-1 cells; for IC50: ASPC1, 3 h, 3 hr compound incubation, Cisbio pERK HTRF; for inhibition at 0.1 µM: ASPC1, single point at 100 nM, 3 hrs compound incubation.
The test system of a further assay is PSN1 cells. Put plainly: Inhibition of KRas-mediated phosphorylation of ERK (Cisbio HTRF pERK), PSN1 cells. Conditions: Homo sapiens, PSN1, 3 h, 3 hour compound incubation, Cisbio pERK HTRF. It is filed as cell-based. The essentials:
as §1

The subject of a further assay is HCT116 cells. As to the kind of experiment: Inhibition of KRas-mediated phosphorylation of ERK (Cisbio HTRF pERK), HCT116 cells. It is filed as cell-based. The settings on record: Homo sapiens; for inhibition at 0.1 µM: HCT-116, single point at 100 nM, 3 hrs compound incubation; for IC50: HCT-116, 3 h, 3 hr compound incubation, Cisbio pERK HTRF.
In a further assay the test system is H358 cells. Put plainly: Inhibition of KRas-mediated phosphorylation of ERK (Cisbio HTRF pERK), H358 cells. It is filed as cell-based. The settings on record: Homo sapiens; for inhibition at 0.1 µM: NCI-H358, single point at 100 nM, 3 hrs compound incubation; for IC50: NCI-H358, 3 h, 3 hr compound incubation, Cisbio pERK HTRF.

A word on the IC50: it is the concentration that inhibits the measured activity by half. Read a low IC50 as greater potency. As usually defined, the inhibition is the change of the read-out against control, counted positive when it falls. Regarding `CCc1c(F)ccc2cc(O)cc(N3CCc4c(nc(OC[C@@]56CCCN5C[C@H](F)C6)nc4N4CCCn5nc(C(=O)N6CCC7CC6CN7C)cc5C4)C3)c12` (stereo partly drawn) [Example 501, (5-(7-(8-ethyl-7-fluoro-3-hydroxynaphthalen-1-yl)-2-(((2R,7aS)-2-fluorohexahydro-1H-pyrrolizin-7a-yl)methoxy)-5,6,7,8-tetrahydropyrido[3,4-d]pyrimidin-4-yl)-5,6,7,8-tetrahydro-4H-pyrazolo[1,5-a][1,4]diazepin-2-yl)(6-methyl-2,6-diazabicyclo[3.2.1]octan-2-yl)methanone], the IC50 in the assay with H727 cells was 132 nM; on KRas G12R it was 2 nM; at KRas G12D it was less than 2 nM; with MKN1 cells it was 41.2 nM; on KRas G12V, less than 2 nM; with ASPC1 cells, 23 nM. Moreover, the IC50 with PSN1 cells was more than 10000 nM. The inhibition at 0.1 µM amounted to 40% with H727 cells; 27% with A549 cells; 17% in the assay on H460 cells; 86% in the assay with ASPC1 cells; 23% in the assay on HCT116 cells; 95% in the assay on H358 cells.
Take `CCc1c(F)ccc2cc(O)cc(N3CCc4c(nc(OC[C@@]56CCCN5C[C@H](F)C6)nc4N4CCCCn5nc(C(=O)NC(C)C)c(Cl)c5C4)C3)c12` [Example 506, 3-chloro-5-(7-(8-ethyl-7-fluoro-3-hydroxynaphthalen-1-yl)-2-(((2R,7aS)-2-fluorotetrahydro-1H-pyrrolizin-7a(5H)-yl)methoxy)-5,6,7,8-tetrahydropyrido[3,4-d]pyrimidin-4-yl)-N-isopropyl-4,5,6,7,8,9-hexahydropyrazolo[1,5-a][1,4] diazocine-2-carboxamide]: the IC50 with H727 cells is 5 nM; on KRas G12R, less than 2 nM; at KRas G12D, less than 2 nM; with A549 cells, 17 nM; in the assay on MKN1 cells it was 9.9 nM; in the assay with H460 cells, 81 nM. Further, the IC50 at KRas G12V is less than 2 nM; with ASPC1 cells, 10 nM; in the assay with PSN1 cells it was 1090 nM; in the assay with HCT116 cells, 298 nM; in the assay on H358 cells, 4 nM. The inhibition at 0.1 µM in the assay with H727 cells was determined as 80%; in the assay with H460 cells, 71%; in the assay with ASPC1 cells, 97%; with HCT116 cells, 34%.
In the case of `CCc1c(F)ccc2cc(O)cc(N3CCc4c(nc(OC[C@@]56CCCN5C[C@H](F)C6)nc4N4CCCCn5nc(C(=O)N(C)C)c(Br)c5C4)C3)c12` [Example 507, 3-bromo-5-(7-(8-ethyl-7-fluoro-3-hydroxynaphthalen-1-yl)-2-(((2R,7aS)-2-fluorotetrahydro-1H-pyrrolizin-7a(5H)-yl)methoxy)-5,6,7,8-tetrahydropyrido[3,4-d]pyrimidin-4-yl)-N,N-dimethyl-4,5,6,7,8,9-hexahydropyrazolo[1,5-a][1,4] diazocine-2-carboxamide], the IC50 in the assay with H727 cells is 4 nM; at KRas G12R, less than 2 nM; at KRas G12D it was less than 2 nM; in the assay with A549 cells, 6 nM; with MKN1 cells it was 5.5 nM; in the assay with H460 cells, 13 nM. The IC50 on KRas G12V was less than 2 nM; with ASPC1 cells, 10 nM; with PSN1 cells, 1320 nM; in the assay with HCT116 cells, 39 nM; in the assay on H358 cells, 1 nM. The inhibition at 0.1 µM in the assay on H727 cells was determined as 79%; in the assay with A549 cells, 76%; in the assay with H460 cells it was 84%; in the assay on ASPC1 cells, 96%; in the assay on HCT116 cells it was 51%; in the assay on H358 cells it was 101%.
Take `Cc1c(F)ccc2cc(O)cc(N3CCc4c(nc(OC[C@@]56CCCN5C[C@H](F)C6)nc4N4CCCC5(CNS(=O)(=O)N5)C4)C3)c12` (stereo partly drawn) [Example 512, 7-(7-(7-fluoro-3-hydroxy-8-methylnaphthalen-1-yl)-2-(((2R,7aS)-2-fluorohexahydro-1H-pyrrolizin-7a-yl)methoxy)-5,6,7,8-tetrahydropyrido[3,4-d]pyrimidin-4-yl)-2-thia-1,3,7-triazaspiro[4.5]decane 2,2-dioxide]: the IC50 is 85 nM in the assay with H727 cells; 2 nM at KRas G12R; less than 2 nM at KRas G12D; 12.6 nM in the assay with MKN1 cells; less than 2 nM at KRas G12V; 30 nM with ASPC1 cells. The same compound displayed an IC50 in the assay on PSN1 cells of 276 nM. Besides, the inhibition at 0.1 µM in the assay on H727 cells amounted to 42%; with A549 cells, 71%; with H460 cells, 79%; with ASPC1 cells it was 74%; in the assay with HCT116 cells, 56%; in the assay with H358 cells, 92%.
Turning to `CCc1c(F)ccc2cc(O)cc(N3CCc4c(nc(OC[C@@]56CCCN5C[C@H](F)C6)nc4N4C[C@@H]5C[C@H](C4)[C@H](O)C5)C3)c12` [Example 585B, (1R,5R,6R)-3-(7-(8-ethyl-7-fluoro-3-hydroxynaphthalen-1-yl)-2-(((2R,7aS)-2-fluorotetrahydro-1H-pyrrolizin-7a(5H)-yl)methoxy)-5,6,7,8-tetrahydropyrido[3,4-d]pyrimidin-4-yl)-3-azabicyclo[3.2.1]octan-6-ol], the IC50 in the assay on H727 cells was 191 nM; on KRas G12R, less than 2 nM; on KRas G12D, 3 nM; in the assay with A549 cells, 125 nM; in the assay on MKN1 cells, 19.7 nM; with H460 cells, 163 nM. Also, the IC50 at KRas G12V was less than 2 nM; with ASPC1 cells it was 273 nM; with PSN1 cells, 6500 nM; in the assay on HCT116 cells, 439 nM; with H358 cells, 111 nM.
With `CCc1c(F)ccc2cc(O)cc(N3CCc4c(nc(OC[C@]56CCCN5[C@H](COC(=O)N(C)C)CC6)nc4N4CCCn5nc(C(=O)N(C)C)cc5C4)C3)c12` [Example 586, ((3S,7aR)-7a-(((4-(2-(dimethylcarbamoyl)-7,8-dihydro-4H-pyrazolo[1,5-a][1,4]diazepin-5(6H)-yl)-7-(8-ethyl-7-fluoro-3-hydroxynaphthalen-1-yl)-5,6,7,8-tetrahydropyrido[3,4-d]pyrimidin-2-yl)oxy)methyl)hexahydro-1H-pyrrolizin-3-yl)methyl dimethylcarbamate], the IC50 in the assay with H727 cells was 29 nM; at KRas G12R, less than 2 nM; at KRas G12D, less than 2 nM; in the assay with A549 cells it was 48 nM; with MKN1 cells it was 38 nM; with H460 cells, 137 nM. For the same compound, the IC50 at KRas G12V is less than 2 nM; with ASPC1 cells, 19 nM; with PSN1 cells it was 8160 nM; with HCT116 cells it was 336 nM; in the assay on H358 cells, 23 nM.
Regarding `O=C1NC(=O)[C@]2(CCCN(c3nc(OC[C@@]45CCCN4C[C@H](F)C5)nc4c3CCN(c3cc(O)cc5ccc(F)c(Cl)c35)C4)C2)N1` [Example 587, (R)-7-(7-(8-chloro-7-fluoro-3-hydroxynaphthalen-1-yl)-2-(((2R,7aS)-2-fluorotetrahydro-1H-pyrrolizin-7a(5H)-yl)methoxy)-5,6,7,8-tetrahydropyrido[3,4-d]pyrimidin-4-yl)-1,3,7-triazaspiro[4.5]decane-2,4-dione], the IC50 in the assay with H727 cells was 164 nM; at KRas G12R, less than 2 nM; on KRas G12D it was less than 2 nM; in the assay on A549 cells, 33 nM; in the assay with MKN1 cells, 3.3 nM; with H460 cells, 25 nM. Besides, the IC50 at KRas G12V was less than 2 nM; in the assay on ASPC1 cells, 131 nM; in the assay on PSN1 cells it was 170 nM; with HCT116 cells, 82 nM; in the assay on H358 cells it was 11 nM.
Take `CCc1c(F)ccc2cc(O)cc(N3CCc4c(nc(OCC5(CN(C)C)CC5)nc4N4CCCC5(CCO5)C4)C3)c12` (stereo not drawn) [Example 588, 4-(2-((1-((dimethylamino)methyl)cyclopropyl)methoxy)-4-(1-oxa-6-azaspiro[3.5]nonan-6-yl)-5,8-dihydropyrido[3,4-d]pyrimidin-7(6H)-yl)-5-ethyl-6-fluoronaphthalen-2-ol]: the IC50 was 779 nM in the assay on H727 cells; less than 2 nM at KRas G12R; less than 2 nM on KRas G12D; 455 nM in the assay on A549 cells; 250 nM with MKN1 cells; 276 nM with H460 cells. For the same compound, the IC50 was less than 2 nM at KRas G12V; 460 nM in the assay on ASPC1 cells; 6390 nM in the assay with PSN1 cells; 544 nM with HCT116 cells; 211 nM with H358 cells.

The values above are taken from patent US20250368649A1, “TETRAHYDROPYRIDOPYRIMIDINE PAN-KRAS INHIBITORS” (Mirati Therapeutics, Inc., priority 2022, published 2025).
